Results: patent US6143722A, “Heptapeptide oxytocin analogues” (Ferring, B.V., priority 1996, dated 2000)
Read-outs that look alike come from different tables or passages of the source. *1 amine or outer side, *2 acyl side, *3 side chain or, on linkers, in order; H or OH if unused. Where a SMILES comes first, the peptide text is derived from it. Bridges are numbered along the chain shown (N, C = ends). [ ]: non-standard residue; d: D form. ξ: configuration not given here. d2Nal = N[C@H](Cc1ccc2ccccc2c1)C(=O)O; aIle = CC[C@@H](C)[C@H](N)C(=O)O; hCys = N[C@@H](CCS)C(=O)O; ξNMeOrn = CNC(CCCN)C(=O)O; X1 = O=C(CC[*:2])[*:1]

Experiments:
[1] = target: T1, Recombinant human oxytocin receptors (Homo sapiens, UniProt P30559); assay: Oxytocin receptor binding assay ([125I]-oxytocin, membrane fraction); conditions: recombinant human oxytocin receptors expressed in CHO or HEK293 cells, mean ± SEM
T1 construct: expressed in transfected cells; host or cells: CHO or HEK293 cells (membrane fraction)
T1 sequence (P30559 1-389): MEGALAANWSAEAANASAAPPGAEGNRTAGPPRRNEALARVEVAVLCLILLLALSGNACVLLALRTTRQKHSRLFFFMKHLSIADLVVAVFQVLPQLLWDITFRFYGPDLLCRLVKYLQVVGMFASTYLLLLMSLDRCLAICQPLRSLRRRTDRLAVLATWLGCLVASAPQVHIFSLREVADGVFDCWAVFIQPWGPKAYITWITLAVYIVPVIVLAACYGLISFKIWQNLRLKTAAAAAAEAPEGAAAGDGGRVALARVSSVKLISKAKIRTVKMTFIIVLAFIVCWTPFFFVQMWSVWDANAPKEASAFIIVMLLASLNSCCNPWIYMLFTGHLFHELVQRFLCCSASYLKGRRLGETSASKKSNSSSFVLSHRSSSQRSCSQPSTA
Method: i) Oxytocin receptor binding assay
Recombinant human oxytocin receptors were expressed in either CHO or HEK293 cells using standard molecular biological techniques. A membrane fraction was prepared and incubated in the presence of [^125 I]-oxytocin and varying concentrations of heptapeptide analogue. Membranes were then isolated by filtration and counted for radioactivity to determine oxytocin binding. An inhibition constant Ki was determined for the analogue.

[2] = pH 4.5
Method: (§1) Solutions of the heptapeptide analogues of the present invention were prepared with compositions representative of aqueous formulations. The solutions were stored for several weeks at 50° C. and aliquots were withdrawn periodically for analysis by HPLC. Reference peptides were studied in parallel. Degradation was determined as the loss of peptide (% by weight per week), independent of the nature of the decomposition products.

myometrium = type: in vivo, Sprague Dawley rats; conditions: for ID50, rat model: in vivo
Method: Sprague Dawley rats (ca. 250 g) in natural estrus were anaesthetised with Inactin (0.5 mg/100 g body weight, i.p.). The activity of the myometrium was measured with the aid of a catheter fixed in the uterine cavity and filled with modified Lockes solution. The catheter was connected to a Statham P23D force transducer and the contractions were recorded on a Grass polygraph (model 7D).
The dose-response curve for oxytocin (2×10^-4 -5×10^-3 μmol/kg) was recorded. In this case the response was quantified by integration of the curve during the 15 minutes following agonist injection. A dose of oxytocin giving an effect corresponding to an intralumenar contraction pressure of 10-30 mm Hg and within the linear section of the curve was selected. This dose of oxytocin was administered to the animal in conjunction with at least two different doses of antagonist and the effect was recorded. The dose of antagonist which reduces the effect of the agonist to 50% of tis control value was determined by interpolation and is given here as an ID50 value. [ID50 value=dose of antagonist required to reduce the effect of a given agonist dose by 50%].
The duration of action of the antagonists was also determined in this model. An oxytocin dose was selected (2×10^-4 -5×10^-3μmol/kg) giving an effect corresponding to half the maximum effect (this dose is the ED50). The effect determined here is the same as for the ID50 determination defined above. An antagonist dose was selected (8×10^-4 -4×10^-3 μmol/kg) so as to give at least 50% inhibition of the response to the agonist. At the beginning of the experiment, single doses of the agonist and antagonist were co-administered. At 20 minute intervals thereafter, doses of the agonist alone were administered and the response was measured. […] [t75 value=time period required for the effectiveness of a single dose to decline by 75%].

[3] = system: Uterus muscle tissue from women in late pregnancy; assay: Antagonist effect in vitro in a human uterus model (oxytocin-induced contraction of uterus muscle strips); type: cell-based; conditions: concentration of antagonist reducing the oxytocin response to 50% of control; isolated human uterus strips
Method: ii) Antagonist effect in vitro in a human uterus model
Uterus muscle tissue from women in late pregnancy undergoing Caesarean section was cut into strips which were mounted in a tissue bath filled with Krebs-Ringer buffer and oxygenated with carbogen (95% O2 +5% CO2) gas. Changes in isometric muscle tension detected with a tension transducer were recorded on a Grass polygraph.
The concentration-effect curve of oxytocin was recorded. The effect measured in this case corresponds to the net value of the integrated contraction curve during the 10 minute period following agonist (i.e. oxytocin) administration. A concentration of oxytocin giving at least half-maximal response was selected. This concentration of agonist was administered to the tissue in the presence of different concentrations of antagonist heptapeptide analogue and the response was recorded. The concentration of antagonist required to reduce the response to 50% of its control value was determined by regression analysis and is given here as an IC50 value. [IC50 value=concentration of antagonist required to reduce the effect of a given agonist dose by 50%].

[4] = Evaluation of stability in aqueous solution (HPLC); conditions: Isotonic citrate/phosphate buffer, pH 4.5; stored at 50° C.; loss of peptide by HPLC
Method: as §1

Row | SMILES | Ki [1] [nM] | Degradation at 50° C. (wt %/week) [2] [wt %/week] | Degradation at 50° C. (wt %/week) [4] [wt %/week] | further results
1 | CC[C@H](C)[C@@H]1NC(=O)[C@@H](Cc2c[nH]c3ccccc23)NC(=O)CCSCC[C@@H](C(=O)N(C)[C@H](CO)CCCN)NC(=O)[C@H](CC(N)=O)NC(=O)[C@H](CC2CCCCC2)NC1=O [IV] | 7 ± 1.85 |  |  | 
2 | CC[C@@H](C)[C@@H]1NC(=O)[C@H]([C@@H](C)CC)NC(=O)[C@@H](Cc2ccc3ccccc3c2)NC(=O)CCSCC[C@@H](C(=O)N(C)[C@H](CO)CCCN)NC(=O)[C@H](CC(N)=O)NC1=O [VI] | 0.1 | 1.2 |  | 
3 | CC[C@@H](C)[C@@H]1NC(=O)[C@H]([C@@H](C)CC)NC(=O)[C@@H](Cc2c[nH]c3ccccc23)NC(=O)CCSCC[C@@H](C(=O)N(C)C(CCCN)C(N)=O)NC(=O)[C@H](CC(N)=O)NC1=O (some centres unmarked) [r-IX, reference compound] ([dW]I[aIle]N[hCys][ξNMeOrn]-NH2; linker N-5 via X1) |  |  | 2.9 | ID50, rat model (myometrium): 2.9 ± 0.3 nmol/kg
4 | CC[C@@H](C)[C@@H]1NC(=O)[C@H]([C@@H](C)CC)NC(=O)[C@@H](Cc2ccc3ccccc3c2)NC(=O)CCSCC[C@@H](C(=O)N(C)C(CCCN)C(N)=O)NC(=O)[C@H](CC(N)=O)NC1=O (some centres unmarked) [r-XI] ([d2Nal]I[aIle]N[hCys][ξNMeOrn]-NH2; linker N-5 via X1) |  |  | 4.0 | 
5 | CC[C@H](C)[C@@H]1NC(=O)[C@@H](Cc2c[nH]c3ccccc23)NC(=O)CCSCC[C@@H](C(=O)N(C)C(CCCN)C(N)=O)NC(=O)[C@H](CC(N)=O)NC(=O)[C@H](C(C)C)NC1=O (some centres unmarked) [r-X] ([dW]IVN[hCys][ξNMeOrn]-NH2; linker N-5 via X1) |  |  | 4.3 | 

Now from value to molecule, other results behind:

Row | Ki [1] [nM] | Degradation at 50° C. (wt %/week) [2] [wt %/week] | Degradation at 50° C. (wt %/week) [4] [wt %/week] | SMILES | further results
6 | 0.8 ± 0.3 | 0.7 |  | CC[C@H](C)[C@@H]1NC(=O)[C@@H](Cc2c[nH]c3ccccc23)NC(=O)CCSCC[C@@H](C(=O)N(C)[C@H](CO)CCCN)NC(=O)[C@H](CC(N)=O)NC(=O)[C@H](C(C)C)NC1=O [III] | 
7 | 3.2 ± 0.75 |  |  | CC[C@H](C)[C@@H]1NC(=O)[C@@H](Cc2c[nH]c3ccccc23)NC(=O)CCSCC[C@@H](C(=O)N(C)[C@H](CO)CCCN)NC(=O)[C@H](CC(N)=O)NC(=O)[C@H](CC(C)C)NC1=O [II] | 
8 | 0.25 ± 0.16 | 0.4 |  | CC[C@@H](C)[C@@H]1NC(=O)[C@H]([C@@H](C)CC)NC(=O)[C@@H](Cc2c[nH]c3ccccc23)NC(=O)CCSCC[C@@H](C(=O)N(C)[C@H](CO)CCCN)NC(=O)[C@H](CC(N)=O)NC1=O [Peptide I] | t75, rat model (myometrium; duration of action: time for the effectiveness of a single dose to decline by 75%, antagonist dose 8×10^-4 -4×10^-3 μmol/kg): 169 ± 2 min; ID50, rat model (myometrium): 2.9 ± 0.3 nmol/kg; IC50 [3]: 5 ± 1 nM
9 | 2.4 ± 0.85 |  |  | CCC(CC)[C@@H]1NC(=O)[C@H]([C@@H](C)CC)NC(=O)[C@@H](Cc2c[nH]c3ccccc23)NC(=O)CCSCC[C@@H](C(=O)N(C)[C@H](CO)CCCN)NC(=O)[C@H](CC(N)=O)NC1=O [VII] | 
10 | 1.4 ± 0.15 |  |  | CC[C@H](C)[C@@H]1NC(=O)[C@H]([C@@H](C)CC)NC(=O)[C@@H](Cc2c[nH]c3ccccc23)NC(=O)CCSCC[C@@H](C(=O)N(C)[C@H](CO)CCCN)NC(=O)[C@H](CC(N)=O)NC1=O [V] | 
